{"source": "patent US20110034442A1", "about": "“Use and Methods of Use for an Antagonist of the Serotin3 Receptor (5-HT3) and a Selective Modulator of Chloride Channels for the Treatment of Addiction to or Dependence on Medicines/Drugs or Nervous System Disorders” (priority 2007, published 2011)", "origin": "cited, not measured here", "key": {"K+-evoked [3H]ACh efflux": {"test_system": "K+-evoked [3H]ACh efflux", "details": "slices from rat entorhinal cortex preloaded with [3H]choline"}, "[1]": {"details": "in vivo"}, "rats [2]": {"test_system": "rats"}, "mice [3]": {"test_system": "mice"}, "[4]": {"details": "in vivo", "remark": "listed apart in the source"}, "5-HT3 receptors": {"molecular_target": "T1, 5-HT3 receptors (Homo sapiens, UniProt P46098)", "T1 sequence (P46098 24-478)": "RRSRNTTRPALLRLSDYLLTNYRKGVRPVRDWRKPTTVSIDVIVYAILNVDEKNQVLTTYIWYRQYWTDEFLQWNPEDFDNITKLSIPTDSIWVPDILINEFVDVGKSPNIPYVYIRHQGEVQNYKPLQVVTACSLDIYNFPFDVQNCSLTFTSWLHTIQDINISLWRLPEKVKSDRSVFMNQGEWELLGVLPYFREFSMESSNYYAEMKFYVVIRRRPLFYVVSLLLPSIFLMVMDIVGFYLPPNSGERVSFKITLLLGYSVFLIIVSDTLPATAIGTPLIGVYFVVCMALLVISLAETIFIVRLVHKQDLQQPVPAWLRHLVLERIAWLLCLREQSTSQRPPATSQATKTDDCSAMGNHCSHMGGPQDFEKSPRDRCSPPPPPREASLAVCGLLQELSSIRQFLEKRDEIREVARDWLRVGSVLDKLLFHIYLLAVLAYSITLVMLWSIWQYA", "details": "in vivo"}, "healthy males": {"test_system": "healthy males", "details": "pretreatment, nine healthy males"}, "[5]": {"experiment": "not given", "remark": "listed apart in the source"}, "[6]": {"test_system": "alcohol dependent subjects", "details": "4 microg/kg b.i.d."}, "[7]": {"test_system": "adolescents who had alcohol dependence", "details": "4 microg/kg b.i.d."}, "healthy human volunteers": {"test_system": "healthy human volunteers", "details": "pretreatment 0.15 mg/kg i.v.; oral D-amphetamine 0.5 mg/kg; subjects with robust responses"}, "[8]": {"details": "flumazenil 10 mg/kg, ondansetron 0.3 mg/kg, R(−)-alpha-metylhistamine 10 mg/kg"}, "Wistar rats": {"test_system": "Wistar rats", "details": "0.1, 0.5, 1, 2 mg/kg intra-peritoneally, 30 minutes prior to d-amphetamine"}, "[9]": {"experiment": "not given", "remark": "listed apart in the source"}, "[10]": {"details": "in vivo", "remark": "listed apart in the source"}, "[11]": {"test_system": "cocaine-dependent men and women"}, "mice [12]": {"test_system": "mice", "details": "0.1 and 1 mg/kg PO"}, "[13]": {"details": "pre-treatment 12 mg orally over 24 h; amphetamine 15 mg orally"}, "early-onset alcoholism": {"test_system": "early-onset alcoholism", "details": "16 microg/kg twice daily; early-onset compared with late-onset alcoholism"}, "[14]": {"details": "in contrast to naltrexone"}, "acetylcholine release": {"test_system": "acetylcholine release", "details": "GABA(A) receptor antagonist given with ondansetron; rat frontal cortex"}, "rat": {"test_system": "rat", "details": "elevated plus maze"}, "[15]": {"details": "pH 7.4"}, "rats [16]": {"test_system": "rats", "details": "rats receiving combined cocaine-diazepam compared to cocaine alone or diazepam alone"}, "[17]": {"test_system": "alpha(4)-subunit gene expression", "details": "ethanol withdrawal"}, "[18]": {"test_system": "alcohol-dependent subjects", "details": "15 alcohol-dependent subjects"}}, "note": "Counter-ions that a name gives are not always drawn. Like-named read-outs stand apart in the source and are kept apart here."}
{"compound": "CN1C2CCCC1CC(NC(=O)c1nn(C)c3ccccc13)C2", "note": "(centres unmarked) [granisetron]", "values": [{"measurement": "K+-evoked [3H]ACh efflux", "setting": "K+-evoked [3H]ACh efflux", "result": "concentration-dependent increase"}]}
{"compound": "O=Cc1c(N2CCN(Cc3ccc4c(c3)OCO4)CC2)[nH]c2ccccc12", "note": "[VA21B7, 3-[2-(4′-piperonylpiperazinyl)indolyl]carboxaldehyde]", "values": [{"measurement": "release of suppressed behavior", "setting": "[1]", "result": "able to release suppressed behavior"}]}
{"compound": "Cc1nccn1CC1CCc2c(c3ccccc3n2C)C1=O", "note": "(racemic) [ondansetron, (±)1,2,3,9-tetrahydro-9-methyl-3-[(2-methyl-1H-imidazol-1-yl)methyl]-4H-carbazol-4-one, monohydrochlororide, dehydrate]", "values": [{"measurement": "cocaine intake the following day", "setting": "administered 30 min before the cocaine session", "result": "no effect"}, {"measurement": "cocaine self-administration the following day", "setting": "given 3.5 h after intravenous cocaine self-administration", "result": "attenuate self-administration the following day"}, {"measurement": "cocaine self-administration and sensitization", "setting": "given after each second cocaine regimen dose or during the second withdrawal period", "result": "inhibited"}, {"measurement": "anxiolytic action during withdrawal from chronic chlordiazepoxide", "setting": "rats [2]; rats (Rezazadeh 1992)", "result": "mixed results"}, {"measurement": "efficacy in reversing various aspects of benzodiazepine withdrawal", "setting": "rats [2]; rats, three tests, flumazenil given during chronic chlordiazepoxide (Prather 1993)", "result": "Inconsistent results"}, {"measurement": "anxiolytic action compared to naive mice", "setting": "mice [3]; 0.01, 0.1 and 1 mg/kg i.p.", "result": "significant anxiolytic action"}, {"measurement": "potency compared to diazepam", "setting": "mice [3]; diazepam 1 mg/kg", "result": "less potent"}, {"measurement": "ensuing facilitation of self-stimulation after high-dose nicotine", "setting": "[4]", "result": "not the ensuing facilitation"}, {"measurement": "initial depression of self-stimulation by high-dose nicotine", "setting": "[4]", "result": "reduced the initial depression"}, {"measurement": "self-stimulation", "setting": "[4]", "result": "no effect"}, {"measurement": "antagonism of the effects of amphetamine", "setting": "5-HT3 receptors", "result": "did not antagonize the effects of amphetamine"}, {"measurement": "effects of amphetamine on blood pressure or psychomotor performance tests", "setting": "healthy males", "result": "not on blood pressure or psychomotor performance tests"}, {"measurement": "effects of amphetamine on hunger and subjective state", "setting": "healthy males", "result": "attenuated"}, {"measurement": "solubility in water and normal saline", "setting": "[5]; racemic form, water and normal saline", "result": "soluble"}, {"measurement": "overall craving", "setting": "[6]; early-onset alcoholics", "result": "reduced overall craving significantly"}, {"measurement": "overall craving", "setting": "[6]; late-onset alcoholics, compared with placebo", "result": "not late-onset alcoholics"}, {"measurement": "craving, Adolescent Obsessive-Compulsive Drinking Scale", "setting": "[7]", "result": "reduction"}, {"measurement": "drinks per day", "setting": "[7]; 8 weeks", "result": "significant decrease"}, {"measurement": "safety and tolerability", "setting": "[7]; oral, 8 weeks, 12 adolescents", "result": "safe and well tolerated"}, {"measurement": "activation-euphoria responses to D-amphetamine", "setting": "healthy human volunteers", "result": "attenuated responses"}, {"measurement": "attenuation of scopolamine-induced deficits", "setting": "[8]", "result": "neither flumazenil 10 mg/kg, ondansetron 0.3 mg/kg nor R(−)-alpha-metylhistamine 10 mg/kg attenuated"}, {"measurement": "K+-evoked [3H]ACh efflux", "setting": "K+-evoked [3H]ACh efflux", "result": "concentration-dependent increase"}, {"measurement": "average stereotypic score", "setting": "Wistar rats", "result": "decreased"}, {"measurement": "mean number of head dippings and crossings in the hole board test", "setting": "Wistar rats", "result": "significantly decreased"}, {"measurement": "expression of sensitization and tolerance", "setting": "[9]; administered during withdrawal from intermittent and continuous cocaine", "result": "blockade of the expression of sensitization and tolerance"}, {"measurement": "development of behavioral tolerance", "setting": "[9]; continuous cocaine group", "result": "attenuated the development of behavioral tolerance"}, {"measurement": "development of sensitization", "setting": "[9]; daily injections with cocaine, inverted U-shape dose-response curve", "result": "significantly blocked the development of sensitization"}, {"measurement": "subsequent behavioral response to cocaine", "setting": "[9]; daily injections, saline control subjects", "result": "no consistent or significant effect"}, {"measurement": "increased behavioral suppression following withdrawal from ethanol, nicotine and cocaine", "setting": "[10]", "result": "highly effective inhibitor"}, {"measurement": "tolerability, adverse events", "setting": "[11]; 0.25 mg, 1.0 mg, or 4.0 mg twice daily, 10 weeks", "result": "well tolerated, causing no serious adverse events"}, {"measurement": "dropout rate among all treatment groups", "setting": "[11]; 4.0 mg twice daily", "result": "lowest dropout rate"}, {"measurement": "percentage of participants with a cocaine-free week compared with the placebo group", "setting": "[11]; 4.0 mg twice daily, p=0.02", "result": "greater rate of improvement"}, {"measurement": "number of shocks taken", "setting": "mice [12]", "result": "increased"}, {"measurement": "amphetamine-induced decrease in self-ratings of hunger", "setting": "[13]", "result": "significantly attenuated"}, {"measurement": "changes of the self-stimulation", "setting": "male rats", "result": "did not cause any substantial changes"}, {"measurement": "alleviation of overall mood disturbance, fatigue, vigor, confusion/bewilderment and depression", "setting": "early-onset alcoholism", "result": "greater therapeutic efficacy"}]}
{"compound": "C[C@@H](N)Cc1c[nH]cn1", "note": "[R(−)-alpha-metylhistamine]", "values": [{"measurement": "attenuation of scopolamine-induced deficits", "setting": "[8]", "result": "neither flumazenil 10 mg/kg, ondansetron 0.3 mg/kg nor R(−)-alpha-metylhistamine 10 mg/kg attenuated"}]}
{"compound": "C=C1CC[C@@]2(O)[C@H]3Cc4ccc(O)c5c4[C@@]2(CCN3CC2CC2)[C@H]1O5", "note": "[nalmefene, 17(cyclopropylmethyl)-4,5-alpha-epoxy-6-methylenemorphinan-3,14-diol,hydrochloride salt]", "values": [{"measurement": "hepatocellular injury", "setting": "[14]", "result": "does not cause hepatocellular injury"}]}
{"compound": "CCOC(=O)c1ncn2c1CN(C)C(=O)c1cc(F)ccc1-2", "note": "[flumazenil, ethyl 8-fluoro-5,6-dihydro-5-methyl-6-oxo-4H-imidazo[1,5-a](1,4)benzodiazepine-3-carboxylate]", "values": [{"measurement": "peak increase of acetylcholine release over basal levels", "setting": "acetylcholine release", "result": 259, "unit": "%"}, {"measurement": "anxiolytic effects", "setting": "rat", "result": "did not produce any anxiolytic effects"}, {"measurement": "decrease in open arm entries produced by withdrawal from ethanol treatment", "setting": "rat", "result": "blocked these changes"}, {"measurement": "octanol:buffer partition coefficient", "setting": "[15]", "result": "14 to 1"}, {"measurement": "seizures and incidence of death", "setting": "rats [16]", "result": "unmask seizures and increase the incidence of death"}, {"measurement": "solubility in acidic aqueous solutions", "setting": "[5]; acidic aqueous solutions", "result": "slightly soluble"}, {"measurement": "solubility in water", "setting": "[5]; water", "result": "insoluble"}, {"measurement": "attenuation of scopolamine-induced deficits", "setting": "[8]", "result": "neither flumazenil 10 mg/kg, ondansetron 0.3 mg/kg nor R(−)-alpha-metylhistamine 10 mg/kg attenuated"}, {"measurement": "K+-evoked [3H]ACh efflux", "setting": "K+-evoked [3H]ACh efflux", "result": "enhanced"}, {"measurement": "up-regulation of alpha(4)-subunit gene expression", "setting": "[17]", "result": "selectively prevented the up-regulation"}, {"measurement": "changes of the self-stimulation", "setting": "male rats", "result": "did not cause any substantial changes"}, {"measurement": "anxiolytic or anxiogenic effect", "setting": "[18]", "result": "neither anxiolytic nor anxiogenic"}]}
{"compound": "CN1[C@@H]2CC[C@H]1C[C@@H](OC(=O)c1cc(Cl)cc(Cl)c1)C2", "note": "[MDL 72222]", "values": [{"measurement": "K+-evoked [3H]ACh efflux", "setting": "K+-evoked [3H]ACh efflux", "result": "concentration-dependent increase"}]}
